From patent US6627411B2, “Method for evaluating matrix metalloprotease inhibitory activity” (Shionogi & Co., Ltd., priority 1999, dated 2003)

What was measured:
MMP-3 = MMP-3 (Homo sapiens, UniProt P08254); experiment: MMP inhibitory activity IC50, MMP-3; format: biochemical
MMP-14 = MMP-14 (Homo sapiens, UniProt P50281); experiment: MMP inhibitory activity IC50, MMP-14; format: biochemical
MMP-1 = molecular target: T1, MMP-1 (Homo sapiens, UniProt P03956); experiment: MMP inhibitory activity IC50, MMP-1; format: biochemical
T1 sequence (P03956 100-469): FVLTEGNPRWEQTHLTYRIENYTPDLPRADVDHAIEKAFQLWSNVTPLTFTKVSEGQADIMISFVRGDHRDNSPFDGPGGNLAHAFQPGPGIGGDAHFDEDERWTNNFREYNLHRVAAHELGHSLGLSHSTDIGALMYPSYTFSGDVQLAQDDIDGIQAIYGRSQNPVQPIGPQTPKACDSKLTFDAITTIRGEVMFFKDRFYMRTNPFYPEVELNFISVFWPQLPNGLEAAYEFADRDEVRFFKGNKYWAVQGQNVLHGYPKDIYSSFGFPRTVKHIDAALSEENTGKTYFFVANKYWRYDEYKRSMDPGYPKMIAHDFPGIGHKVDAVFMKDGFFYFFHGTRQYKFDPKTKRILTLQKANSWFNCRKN

MMP-9 = MMP-9 (Homo sapiens, UniProt P14780); experiment: MMP inhibitory activity IC50, MMP-9; format: biochemical
Sequence of MMP-9 (P14780 94-707, species assumed): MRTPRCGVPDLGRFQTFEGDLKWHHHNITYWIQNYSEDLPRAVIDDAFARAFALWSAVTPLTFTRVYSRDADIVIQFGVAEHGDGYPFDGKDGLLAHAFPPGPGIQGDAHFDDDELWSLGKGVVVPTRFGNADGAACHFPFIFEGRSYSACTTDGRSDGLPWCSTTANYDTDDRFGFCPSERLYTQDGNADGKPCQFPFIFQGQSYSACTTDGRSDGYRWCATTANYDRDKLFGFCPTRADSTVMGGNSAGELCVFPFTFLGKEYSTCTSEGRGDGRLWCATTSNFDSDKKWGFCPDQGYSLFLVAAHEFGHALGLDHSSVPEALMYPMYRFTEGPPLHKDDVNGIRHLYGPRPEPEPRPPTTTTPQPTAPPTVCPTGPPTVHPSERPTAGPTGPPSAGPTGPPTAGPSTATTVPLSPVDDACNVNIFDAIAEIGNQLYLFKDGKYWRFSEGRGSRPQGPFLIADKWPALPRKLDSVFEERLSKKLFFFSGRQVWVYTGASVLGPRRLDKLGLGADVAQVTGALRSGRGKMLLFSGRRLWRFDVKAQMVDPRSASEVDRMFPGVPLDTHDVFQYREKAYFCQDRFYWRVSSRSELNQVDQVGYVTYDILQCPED

MMP-2 = molecular target: T2, MMP-2 (Homo sapiens, UniProt P08253); experiment: MMP inhibitory activity IC50, MMP-2; format: biochemical
T2 sequence (P08253 110-660): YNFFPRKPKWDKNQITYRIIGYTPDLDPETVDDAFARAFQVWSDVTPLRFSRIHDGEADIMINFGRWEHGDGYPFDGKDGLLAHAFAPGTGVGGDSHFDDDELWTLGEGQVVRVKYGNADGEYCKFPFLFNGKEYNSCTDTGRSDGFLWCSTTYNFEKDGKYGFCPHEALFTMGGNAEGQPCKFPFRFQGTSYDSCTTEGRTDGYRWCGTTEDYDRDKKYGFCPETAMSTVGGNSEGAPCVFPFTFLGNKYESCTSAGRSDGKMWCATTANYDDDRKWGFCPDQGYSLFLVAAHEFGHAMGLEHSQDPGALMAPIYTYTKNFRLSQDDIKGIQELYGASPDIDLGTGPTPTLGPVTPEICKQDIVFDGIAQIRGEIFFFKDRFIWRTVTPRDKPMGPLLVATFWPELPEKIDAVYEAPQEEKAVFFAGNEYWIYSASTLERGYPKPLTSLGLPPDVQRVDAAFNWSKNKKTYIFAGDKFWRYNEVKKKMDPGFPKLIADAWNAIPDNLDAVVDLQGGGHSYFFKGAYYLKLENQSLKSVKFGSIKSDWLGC

MMP-7 = molecular target: T3, MMP-7 (Homo sapiens, UniProt P09237); experiment: MMP inhibitory activity IC50, MMP-7; format: biochemical
T3 sequence (P09237 95-267): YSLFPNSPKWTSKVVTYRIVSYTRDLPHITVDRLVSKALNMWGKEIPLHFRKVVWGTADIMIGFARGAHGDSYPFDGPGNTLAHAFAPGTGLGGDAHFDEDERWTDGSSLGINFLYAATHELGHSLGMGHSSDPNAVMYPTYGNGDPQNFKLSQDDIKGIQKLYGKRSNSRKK

[1] = test system: gelatin degradation in cancer tissue (human lung cancer cell line Ma44); experiment: In situ zymography of tumor mass from Ma44-bearing nude mice after oral administration; format: in vivo; conditions: for Quantitative analysis using Optimas Ver.6 (brightness in each tissue/size in each tissue): 200 mg/kg orally, two hours after administration, vehicle 49.2; for inhibition of the gelatin degradation: nude mice; for Quantitative analysis using Optimas Ver.6: vehicle 53.4
Protocol: Fifteen g of acid-treated swine cutis gelatin was dissolved in 123 g of pure water, and the solution was added with 1.2 ml of 1,2-bis(vinylsulfonylacetamido)ethane (4%) as a hardening agent. The solution was uniformly applied to a polyethylene terephthalate film undercoated with gelatin so as to obtain a dried membrane having a thickness of about 7 μm, and the membrane was dried to obtain a gelatin thin membrane. The gelatin thin membrane was stored at room temperature until the use.
Human lung cancer cell line Ma44 (CANCER RESEARCH 59, 1231-35 (1999)) that was known to produce MMP-2 in a large amount was used. Nude mice (six weeks aged, female, CLEA Japan, Inc.) were transplanted intraperitoneally with 1×10^5 Ma44 cells, and, 14 days later, BPHA or (−)BPHA was administered orally to the animals at 200 mg/kg. As control, a vehicle (a physiological saline containing 0.4% Tween80, 0.5% carboxymethyl cellulose, and 0.9% benzyl alcohol) was similarly administered. Two hours after the administration, the cancer-bearing mice were autopsied to remove the tumor mass formed at the abdominal wall and the mesenterium, and the mass was subjected to the in situ zymography experiment.
The tumor mass was embedded in OCT Compound (SAKURA), and then Microtone/Cryostat TISSUE TEK II (Miles-Sankyo) was used to prepare […] having a thickness of 8 μm. The […] were placed gently onto the gelatin thin membrane previously prepared to give samples, and then the membranes were placed into a humid bath to prevent them from drying, followed by leaving the membranes to stand in an incubator at 37° C. After reacted for 3.5 hours, the thin membranes were taken out, and stained with a 1% Amido Black solution (Wako Pure Chemical Industries) for 15 minutes. Subsequently, the membranes were treated with a decolorizing solution (70% methanol, 10% acetic acid) for 10 minutes.
The cancer tissue on the thin membrane was observed under light microscopy to determine the area where the gelatin degradation was recognized. Additionally, the slide scanner (Nikon 35 mm film scanner: COOLSCAN II) was used to analyze quantitatively the tone with the software Optimas Ver.6 (Optimas Corporation).
was orally administered at dosages of 0.2, 2.0, 20.0, and 200.0 mg/kg in stead of the administrations of BPHA and (−)BPHA, treatments were conducted for in situ zymography.

Sequence of MMP-3 (P08254 100-477, species assumed): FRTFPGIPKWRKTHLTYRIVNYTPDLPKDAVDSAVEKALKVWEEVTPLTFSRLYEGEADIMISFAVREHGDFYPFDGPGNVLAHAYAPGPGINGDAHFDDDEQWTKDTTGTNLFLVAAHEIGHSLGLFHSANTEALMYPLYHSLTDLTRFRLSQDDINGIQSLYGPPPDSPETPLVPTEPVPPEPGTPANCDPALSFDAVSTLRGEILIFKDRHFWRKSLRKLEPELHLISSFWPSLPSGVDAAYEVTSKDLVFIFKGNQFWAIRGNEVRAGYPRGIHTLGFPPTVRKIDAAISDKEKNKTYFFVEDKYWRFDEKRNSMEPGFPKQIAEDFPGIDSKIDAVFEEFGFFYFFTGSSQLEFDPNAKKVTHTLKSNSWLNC

SMILES	IC50 (MMP-3)	IC50 (MMP-14)	IC50 (MMP-1)	IC50 (MMP-9)	IC50 (MMP-2)	IC50 (MMP-7)	Quantitative analysis using Optimas Ver.6 (brightness in each tissue/size in each tissue) [1]	inhibition of the gelatin degradation ([1]; 0.2 mg/kg orally)	Quantitative analysis using Optimas Ver.6 ([1]; 0.2 mg/kg orally)	Quantitative analysis using Optimas Ver.6 ([1]; 2.0 mg/kg orally)	Quantitative analysis using Optimas Ver.6 ([1]; 20.0 mg/kg orally)	inhibition of the gelatin degradation ([1]; 200.0 mg/kg orally)	Quantitative analysis using Optimas Ver.6 ([1]; 200.0 mg/kg orally)	inhibition of the gelatin degradation ([1]; 20.0 to 2.0 mg/kg orally)
O=C(NO)[C@@H](Cc1ccccc1)NS(=O)(=O)c1ccc(-c2ccccc2)cc1 [BPHA]	> 1000 nM	17 nM	974 nM	16 nM	12 nM	795 nM	8.6							
O=C(NO)[C@H](Cc1ccccc1)NS(=O)(=O)c1ccc(-c2ccccc2)cc1 [(−)BPHA]	> 1000 nM	> 1000 nM	> 1000 nM	> 1000 nM	> 1000 nM	> 1000 nM	40.1							
O=C(O)[C@@H](Cc1c[nH]c2ccccc12)NS(=O)(=O)c1ccc(-c2nnn(-c3ccccc3)n2)cc1 [MMI-166]								merely partial inhibition	41.3	28.6	13.7	complete inhibition of the gelatin degradation	5.3	the inhibition was lowered in sequence
